Reference: PubChem BioAssay AID2060610 (Molecular Pharmacology Branch, DTP, NCI, 2025)
Values joined by “and” are separate entries in the source; they are usually repeats but may differ in a detail not shown here. Equal entries are not always repeated.

System: 616215-338-R-J1-PDC complex spheroids, viability % test/control
Test: Anticancer human tumor 616215-338-R-J1-PDC patient-derived colon adenocarcinoma cell line growth inhibition [CLK]
Details: for viability, T/C: stronger effect = lower value
Text: A high-throughput screen of multi-cell type tumor spheroids was designed to identify active combinations of […] and targeted small molecules. Complex spheroids include a stromal component modeled by human endothelial cells (HUVEC) and fibroblasts modeled by human mesenchymal stem cells (MSCs). The concentration ranges selected for each drug and investigational agent were based upon clinically achievable concentrations if the clinical Cmax of the agent was known.
Compounds. The drugs and investigational agents: cirtuvivint (SM08502; NSC835563), CC-671 (NSC850746), vemurafenib (NSC761431), tapotoclax (NSC804041), sotorasib (NSC818433), adagrasib (NSC831453), MRTX-1133 (NSC836407), BAY2416964 (NSC825713), copanlisib (NSC816437), inavolisib (NSC800729), abemaciclib (NSC768073), osimertinib (NSC779217), entinostat (NSC756642), eltanexor (KPT-8602, NSC794443), venetoclax (NSC766270), ceralasertib (NSC777638), bortezomib (NSC756655), olaparib (NSC753686), talazoparib (NSC767125), alisertib (NSC759677), peposertib (NSC802822), gemcitabine (NSC613327), 5-fluorouracil (NSC19893), SN-38 (NSC673596), oxaliplatin (NSC266046), paclitaxel (NSC125973), and doxorubicin (NSC123127), were obtained from the National Cancer Institute (NCI) Developmental Therapeutics Program Chemical Repository. The FDA-approved anticancer drug set is available from the Developmental Therapeutics Program at https://dtp.cancer.gov/organization/dscb/obtaining/available plates.htm. […] The stock solutions were prepared in dimethyl sulfoxide (DMSO, Sigma-Aldrich, St. Louis, MO, cat. D2650), except for the platinum complexes which were prepared in saline (Quality Biological, Gaithersburg, MD, cat. 114-055-101), at 800-fold the tested concentration and stored at -70 degrees C prior to their use. All drugs and investigational agents were tested over a range starting from a high concentration at or near the clinical Cmax and decreasing in half-log increments. If the clinical Cmax for an agent had not been determined, the highest concentration tested was 10 microM.
Cell Culture. All cells were maintained in an incubator at 37 degrees C and 5% CO2 with 95% humidity. The PDC lines were cultured according to standard operating procedures established by the NCI PDMR. Briefly, all PDCs were thawed and cultured in Matrigel-coated flasks prepared with a working solution of 1X Ham's F-12 nutrient mix, without supplementation (Invitrogen, Waltham, MA, cat. 11765054), 100 U/mL penicillin-streptomycin (Invitrogen, cat. 15140122), and 2.5% Matrigel (Corning Inc., Corning, NY, cat. 354248) for the first three passages. The 947758-054-R-J2-PDC line was cultured in 6B/Colon 1A media, which includes advanced DMEM/F-12 (Thermo Fisher Scientific, cat. 12634028), 10 mM HEPES (Thermo Fisher Scientific, cat. 15630080), 1X GlutaMAX supplement (Thermo Fisher Scientific, cat. 35050061), 0.1 mg/mL primocin (InvivoGen, cat. ant-pm-2), 10% defined fetal bovine serum, heat inactivated (HyClone Laboratories Inc., cat. SH30070.03HI), 1.25 mM N-Acetyl-L-cysteine (Sigma-Aldrich, cat. A9165), 10 mM nicotinamide (Sigma-Aldrich, cat. N0636), 1X B-27 supplement (Thermo Fisher Scientific, cat. 17504044), 1X N-2 supplement (Thermo Fisher Scientific, cat. 17502048), and 10 microM Y-27632 dihydrochloride (Tocris Bioscience, cat. 1254). The 876862-298-R-J1-PDC was cultured in 6E media, which includes all 6B/Colon 1A media components plus 50% L-WRN conditioned media (ATCC, cat. CRL-3276), 50 ng/mL recombinant human EGF recombinant protein (hEGF; Thermo Fisher Scientific, cat. PHG0311), 10 ng/mL recombinant human fibroblast growth factor 10 (hGFG-10; PeproTech, cat. 100-26), 1 ng/mL recombinant human fibroblast growth factor 2 (hFGF-2; PeproTech, cat. 100-18B), and 1 µM prostaglandin E2 (PGE2; Tocris, cat. 2296). The 227483-062-R1-J1-PDC line was cultured in Panc media, containing all 6E components except hFGF-2, with the addition of 500 nM SB-431542 (Selleckchem, cat. S1067) and 10 nM gastrin (Tocris, cat. 3006). […]
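Further: spheroids exposed to agents for 7 days.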
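Wherever viability, T/C is given: 100% = DMSO vehicle wells.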

## CC(CO)NC(=O)c1cc(-c2ccc(Cl)cc2)nn(-c2cnn(C)c2)c1=O (centres undefined) + CN1CCN(c2cc(C(=O)Nc3cc4cc(-c5cnn(C)c5)ccc4cn3)ccn2)CC1
Curve of first compound, second compound 0.0316 µM
  IC50: > 10000 nM
Curve of first compound, second compound 0.1 µM
  IC50: > 10000 nM
Curve of first compound, second compound 0.316 µM
  IC50: < 31.6 nM
Curve of first compound, second compound 1 µM
  IC50: < 31.6 nM
Curve of first compound, second compound 3.16 µM
  IC50: < 31.6 nM
Curve of first compound, second compound 10 µM
  IC50: < 31.6 nM
Second compound 0.0316 µM, first compound 0.0316 µM
  viability, T/C: 104%
Second compound 0.0316 µM, first compound 0.1 µM
  viability, T/C: 89.5%
Second compound 0.0316 µM, first compound 0.316 µM
  viability, T/C: 91.5%
Second compound 0.0316 µM, first compound 1 µM
  viability, T/C: 91.6%
Second compound 0.0316 µM, first compound 3.16 µM
  viability, T/C: 93%
Second compound 0.0316 µM, first compound 10 µM
  viability, T/C: 100%
Second compound 0.1 µM, first compound 0.0316 µM
  viability, T/C: 94.7%
Second compound 0.1 µM, first compound 0.1 µM
  viability, T/C: 108%
Second compound 0.1 µM, first compound 0.316 µM
  viability, T/C: 90.6%
Second compound 0.1 µM, first compound 1 µM
  viability, T/C: 93.6%
Second compound 0.1 µM, first compound 3.16 µM
  viability, T/C: 97.3%
Second compound 0.1 µM, first compound 10 µM
  viability, T/C: 85.7%
Second compound 0.316 µM, first compound 0.0316 µM
  viability, T/C: 31.3%
Second compound 0.316 µM, first compound 0.1 µM
  viability, T/C: 41.5%
Second compound 0.316 µM, first compound 0.316 µM
  viability, T/C: 26.3%
Second compound 0.316 µM, first compound 1 µM
  viability, T/C: 27.7%
Second compound 0.316 µM, first compound 3.16 µM
  viability, T/C: 33.1%
Second compound 0.316 µM, first compound 10 µM
  viability, T/C: 32.4%
Second compound 1 µM, first compound 0.0316 µM
  viability, T/C: 0.18%
Second compound 1 µM, first compound 0.1 µM
  viability, T/C: 0.19%
Second compound 1 µM, first compound 0.316 µM
  viability, T/C: 0.23%
Second compound 1 µM, first compound 1 µM
  viability, T/C: 0.14%
Second compound 1 µM, first compound 3.16 µM
  viability, T/C: 0.57%
Second compound 1 µM, first compound 10 µM
  viability, T/C: 1.49%
Second compound 3.16 µM, first compound 0.0316 µM
  viability, T/C: 0.15%
Second compound 3.16 µM, first compound 0.1 µM
  viability, T/C: 0.42%
Second compound 3.16 µM, first compound 0.316 µM
  viability, T/C: 0.16%
Second compound 3.16 µM, first compound 1 µM
  viability, T/C: 1.94%
Second compound 3.16 µM, first compound 3.16 µM
  viability, T/C: 2.32%
Second compound 3.16 µM, first compound 10 µM
  viability, T/C: 0.14%
Second compound 10 µM, first compound 0.0316 µM
  viability, T/C: 1.31%
Second compound 10 µM, first compound 0.1 µM
  viability, T/C: 0.25%
Second compound 10 µM, first compound 0.316 µM
  viability, T/C: 0.22%
Second compound 10 µM, first compound 1 µM
  viability, T/C: 0.24%
Second compound 10 µM, first compound 3.16 µM
  viability, T/C: 1.28%
Second compound 10 µM, first compound 10 µM
  viability, T/C: 0.23%

## Cn1ncnc1[C@H]1c2n[nH]c(=O)c3cc(F)cc(c23)N[C@@H]1c1ccc(F)cc1
Compound 0.000316 µM
  viability, T/C: 92% and 98.4%
Compound 0.001 µM
  viability, T/C: 105% and 97.6%
Compound 0.00316 µM
  viability, T/C: 102% and 94.1%
Compound 0.01 µM
  viability, T/C: 95% and 95.3%
Compound 0.0316 µM
  viability, T/C: 116% and 114%
Compound 0.1 µM
  viability, T/C: 106% and 116%
Curve of compound
  IC50: > 100 nM
